Tests used:
RBL-2H3 cells [1] = experiment: A23187-induced degranulation β-hexosaminidase release assay; type: cell-based; settings: Rattus norvegicus, A23187 1 μM
Description: (§1) Cell culture: The mucosal mast cell-derived rat basophilic leukemia (RBL-2H3) cell line was purchased from the Bioresource Collection and Research Center (Hsin-Chu, Taiwan). Cells were grown in DMEM medium supplemented with 10% FBS and 100 U/mL penicillin plus 100 μg/mL streptomycin. Cells were cultured in 10 cm cell culture dishes at 37° C. in a humidified chamber with 5% CO2 in air.
(§2) Degranulation β-hexosaminidase assay induced by A23187 or antigen: The degree of A23187- and antigen-induced degranulation in RBL-2H3 cells was determined by a β-hexosaminidase release assay as described previously (Chen et al., J. Nat. Prod., 72, 950-953, 2009; Matsuda et al., Bioorg. Med. Chem., 12, 5891-5898, 2004) with following modifications. RBL-2H3 cells were seeded in a 96-well plate (2×10^4 cells/well) for A23187-induced and in 48-well plate (3×10^4 cells/well) for antigen-induced experiment. Cells were treated with various concentrations of the samples for 20 h. Dexamethasone (10 nM) was used as a positive control. The cells for the antigen-induced experiment were first sensitized with anti-DNP IgE (5 μg/mL) for at least 2 h. […] Absorbance was measured at 405 nm on a microplate reader (Multiskan Ascent, Thermo Scientific). The inhibition percentage of β-hexosaminidase release was calculated as the percentage of control value (untreated stimulated cells). […]

RBL-2H3 cells [2] = experiment: antigen (DNP-BSA)-induced degranulation β-hexosaminidase release assay; type: cell-based; settings: Rattus norvegicus
Description: as §1, §2

SMILES: CCCCCCC/C=C/C=C/C=C\C(=O)O[C@@H]1[C@@H](C)[C@@]2(O)[C@@H](C=C(CO)C[C@]3(O)C(=O)C(C)=C[C@@H]23)[C@@H]2C(C)(C)[C@]12OC(C)=O [phorbol ester I, 12-O-(2Z,4E,6E)-tetradeca-2,4,6-trienoylphorbol-13-acetate]
- IC50 (RBL-2H3 cells [1]): 1.7 nM
- IC50 (RBL-2H3 cells [2]): 11 nM

From US10335445B2, “Compositions and methods of antiallergic phorbol ester and phorbol derivatives as the main active ingredients from the seeds of aquilaria malaccensis” (WE-WIN APPLIED BIO-TECH CO., LTD., priority 2016, dated 2019)
